Experimental data taken from paper PMC10979003, “Development and crystal structures of a potent second-generation dual degrader of BCL-2 and BCL-xL” (Nature Communications, 2024).

How the values were obtained:
[1] = molecular target: T1, BCL-xL R103A/D107A/S110A/Q111A (Homo sapiens, UniProt Q07817, D107A/Q111A/R103A/S110A); assay: AlphaScreen binary binding, BCL-xL R103A/D107A/S110A/Q111A; conditions: mean ± s.d., n=3; read-out: Ki (nM, n=3), BCL-xL R103A/D107A/S110A/Q111AA
T1 construct: BCL-xL (aa 2-212) and BCL-2 (aa 1-207) transformed cells were grown in LB broth; SMT3 (N); made in house; host or cells: E. coli BL21 (DE3) codon plus
T1 sequence (Q07817 2-212 R103A/D107A/S110A/Q111A): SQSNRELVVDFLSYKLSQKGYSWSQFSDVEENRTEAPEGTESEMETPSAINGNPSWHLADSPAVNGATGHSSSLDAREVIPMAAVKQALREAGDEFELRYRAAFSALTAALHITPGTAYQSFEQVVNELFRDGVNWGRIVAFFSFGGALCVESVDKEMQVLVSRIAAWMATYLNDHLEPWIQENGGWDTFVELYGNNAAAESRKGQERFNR
Experimental: (§1) To test the binary/ternary binding affinities of compounds to BCL-2/BCL-xL, AlphaScreen displacement binding assay was performed to test the capabilities of testing compounds to displace a Biotin-tagged Bim (Biotin-[…]) or Bad (Biotin-[…]) from BCL-2 or BCL-xL for BCL-2 and BCL-xL binding affinities, respectively. All reagents were diluted in assay buffer of 25 mM HEPES, pH 7.5, 150 mM NaCl, 0.1% BSA, and 0.005% tween 20 prior incubation. To a 96-well PCR plate (VWR, Cat. No. 82006-636) was added 10 μL Biotin-tagged Bim (15 nM for WT or 50 nM for mutants) or Bad (15 nM for WT or 50 nM for mutants), 10 μL series diluted compounds solution (2 or 3 or 4× dilution), and 10 μL self-made 6×His tagged BCL-2 WT or mutants (25 nM WT or 50 nM mutants) or 10 μL self-made BCL-xL WT and mutants (10 nM WT or 50 nM mutants). […] The luminescence signal was detected on a Biotek’s Synergy Neo2 multimode plate reader installed with an AphaScreen filter cube. The Ki values of each compounds were calculated by fitting data into the “Binding-competitive, One site-Fit Ki” function in GraphPad Prism (9.2.0) based on concentrations of Biotin–peptide used and experimentally determined Kd values of each 6×His protein &&&and Biotin–Peptide pair.

[2] = system: Jurkat cells; assay: Viability (MTS) assay in Jurkat cells; type: cell-based, human; conditions: 72 h
Experimental: For the viability assays in Jurkat cells, the cells in complete cell culture medium were seeded in 96-well plates (100 µl per well) at the optimized densities (50,000 cells). Compound treatments were prepared in complete cell culture medium and 100 µl of 2× treatment-containing medium were added to each well. Complete cell culture medium without treatment was added in control wells, and wells containing medium without cells served as background. The outer wells of the 96-well plate were not used for treatment and were filled with 250 µl of PBS to reduce evaporation of medium from inner wells. Each compound and/or combination was tested at nine different concentrations with three replicates. The cell viability was measured after 72 h by tetrazolium-based MTS assay. […] The cells were incubated for 4 h at 37 °C and 5% CO2, and then the absorbance was recorded at 490 nm using Biotek’s Synergy Neo2 multimode plate reader (Biotek). The average absorbance value of background wells was subtracted from absorbance value of each control and treatment well, and percent cell viability ((At/A0) × 100) was determined in each treatment well, where At is the absorbance value of the treatment well and A0 is the average absorbance value of control wells after background subtraction. […]

[3] = molecular target: T2, HiBiT-BCL-2/HaloTag-VHL (Homo sapiens, UniProt P10415+P40337); assay: NanoBRET ternary complex formation assay in 293T cells, HiBiT-BCL-2 and HaloTag-VHL; type: cell-based; conditions: 4 h, MG132 pretreatment
T2 construct: full-length BCL-xL and BCL-2 were expressed in cells for the nanoBRET assay; host or cells: 293T
T2 sequence (P10415 whole entry): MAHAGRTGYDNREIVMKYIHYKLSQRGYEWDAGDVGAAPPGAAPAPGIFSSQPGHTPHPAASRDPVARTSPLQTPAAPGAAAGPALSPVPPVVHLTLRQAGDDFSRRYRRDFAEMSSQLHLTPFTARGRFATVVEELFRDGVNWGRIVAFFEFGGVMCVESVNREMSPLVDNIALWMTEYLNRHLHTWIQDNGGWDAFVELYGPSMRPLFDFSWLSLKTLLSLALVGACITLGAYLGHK
T2 sequence (P40337 whole entry): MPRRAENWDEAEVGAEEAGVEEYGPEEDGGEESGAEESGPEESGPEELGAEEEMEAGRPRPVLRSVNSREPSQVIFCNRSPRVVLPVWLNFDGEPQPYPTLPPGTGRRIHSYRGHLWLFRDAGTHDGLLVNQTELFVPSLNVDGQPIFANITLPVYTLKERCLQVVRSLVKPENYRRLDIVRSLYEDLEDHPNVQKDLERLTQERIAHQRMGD
T2 sequence (Q15370 whole entry, further chain): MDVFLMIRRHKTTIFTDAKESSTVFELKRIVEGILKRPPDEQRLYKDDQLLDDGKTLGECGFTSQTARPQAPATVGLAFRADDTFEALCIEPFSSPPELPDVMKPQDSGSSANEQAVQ
T2 sequence (Q15369 whole entry, further chain): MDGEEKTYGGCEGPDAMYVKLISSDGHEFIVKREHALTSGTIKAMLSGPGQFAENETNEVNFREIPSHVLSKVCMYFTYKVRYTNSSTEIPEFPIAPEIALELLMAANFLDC
Experimental: Plasmids HaloTag-VHL (Cat. No. CS1679C155) and CMV HiBiT (Cat. No. CS1956B03) were purchased from Promega. HiBiT-BCL-xL and HiBiT-BCL-2 were constructed previously. 293T cells (8 × 10^5 cells/well in a 6-well plate) were transfected with Lipofectamine (Life Technologies) and 1 μg HaloTag-VHL, 20 ng HiBiT-BCL-xL and 20 ng LgBiT or 1 μg HaloTag-VHL, 20 ng HiBiT-BCL-2 and 20 ng LgBiT. After 48 h, 2 × 10^4 transfected cells were seeded into each well of white 96-well tissue culture plates in Gibco™ Opti-MEM™ I Reduced Serum Medium, No Phenol Red (Cat. No. 11-058-021, Fisher) containing 4% FBS with or without HaloTag NanoBRET 618 Ligand (Cat. No. PRN1662, Promega) and incubated overnight at 37 °C, 5% CO2. […] After treatment, NanoBRET Nano-Glo Substrate (cat. no. N1662, Promega) was added into the medium, and the contents were mixed by shaking the plate for 30 s before measuring donor and acceptor signals on Biotek plate reader. Dual-filtered luminescence was collected with a 450/50 nm bandpass filter (donor, NanoBiT-BCL-XL protein or NanoBiT-BCL-2 protein) and a 610-nm longpass filter (acceptor, HaloTag NanoBRET ligand) using an integration time of 0.5 s. mBRET ratios were calculated following the NanoBRET™ Nano-Glo® Detection System (Cat. No. N1662, Promega).

[4] = molecular target: T3, BCL-2 R110A E114A (Homo sapiens, UniProt P10415, E114A/R110A); assay: AlphaScreen binary binding, BCL-2 R110A E114A; conditions: mean ± s.d., n=3
T3 construct: BCL-xL (aa 2-212) and BCL-2 (aa 1-207) transformed cells were grown in LB broth; made in house; host or cells: E. coli BL21 (DE3) codon plus
T3 sequence (P10415 1-207 R110A/E114A): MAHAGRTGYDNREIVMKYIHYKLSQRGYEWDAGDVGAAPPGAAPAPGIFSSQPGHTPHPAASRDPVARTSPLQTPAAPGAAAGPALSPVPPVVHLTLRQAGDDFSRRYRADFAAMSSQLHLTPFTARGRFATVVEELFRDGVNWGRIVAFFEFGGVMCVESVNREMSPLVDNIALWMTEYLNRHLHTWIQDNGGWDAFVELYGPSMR
Experimental: as §1

[5] = molecular target: T4, BCL-2 E114A (Homo sapiens, UniProt P10415, E114A); assay: AlphaScreen binary binding, BCL-2 E114A
T4 construct: BCL-xL (aa 2-212) and BCL-2 (aa 1-207) transformed cells were grown in LB broth; made in house; host or cells: E. coli BL21 (DE3) codon plus
T4 sequence (P10415 1-207 E114A): as the sequence (P10415 1-207 R110A/E114A) above, with A110R counted along it
Experimental: as §1

Cc1ncsc1-c1ccc(C(C)NC(=O)C2CC(O)CN2C(=O)C(NC(=O)CCCCCCC(=O)N2CCN(CC3(C)CCC(c4ccc(Cl)cc4)=C(CN4CCN(c5ccc(C(=O)NS(=O)(=O)c6ccc(NC(CCN7CCOCC7)CSc7ccccc7)c(S(=O)(=O)C(F)(F)F)c6)cc5)CC4)C3)CC2)C(C)(C)C)cc1 (stereo not drawn) [753b]
Ki [1]: 23 ± 4 nM

Cc1ncsc1-c1ccc([C@H](C)NC(=O)[C@@H]2C[C@@H](O)CN2C(=O)[C@@H](NC(=O)CN2CCN(CC(=O)N3CCN(C[C@]4(C)CCC(c5ccc(Cl)cc5)=C(CN5CCN(c6ccc(C(=O)NS(=O)(=O)c7ccc(N[C@H](CCN8C[C@@H]9C[C@H]8CO9)CSc8ccccc8)c(S(=O)(=O)C(F)(F)F)c7)cc6)CC5)C4)CC3)CC2)C(C)(C)C)cc1 [WH244]
Potency in killing Jurkat cells (comparison) [2]: outperformed 753b, DT2216, and ABT263 | Cellular ternary complex formation with BCL-2 (comparison) [3]: modestly better than 753b | Ki [4]: 5.8 ± 0.6 nM | Increase in Ki for the binary interaction, mutant E114A versus WT BCL-2 [5]: more than two-fold | Ki ([5]; mean ± s.d., n=3): 7.4 ± 1.5 nM
